Two compounds from patent US9399649B2, “Compounds for treating spinal muscular atrophy” (PTC Therapeutics Inc., priority 2012, dated 2016) can be followed below.

Assay [1] deals with SMA Δ7 homozygous knockout mice. In words: Survival of neonatal Δ7 SMA mice. Particulars: IP QD PND 3 to PND 23, then orally BID from PND 24 until study end, FIG. 15. It counts as in vivo. Here is the method: The change in the number of surviving mice over time is used to determine whether treatment with a test compound improves survival.
SMA Δ7 homozygous knockout mice are dosed intraperitoneally (IP) with test compound or vehicle (100% DMSO) QD from PND 3 until the dose regimen is switched to an oral dose BID in 0.5% hydroxypropylmethyl cellulose (HPMC) with 0.1% Tween-80 at a dose 3.16-fold higher than the dose used for IP and later switched to an oral dose QD in 0.5% hydroxypropylmethyl cellulose (HPMC) with 0.1% Tween-80 at a dose 6.32-fold higher than the dose used for IP. The number of surviving mice in each group is recorded every day and plotted as a percent of total number of mice. Tissues of SMA Δ7 and age-matched heterozygous mice are collected for the measurement of Smn protein levels and processed as detailed in Example 10. The total protein normalized Smn protein levels measured in the tissues are plotted as a percent of those in the age-matched heterozygous mice tissues, with the Smn level in heterozygous mice set to 100 percent. The level of Smn protein in the test compound treated mice tissue relative to that in heterozygous mice tissue is indicated as a percent value above each bar in the graph.

Assay [2] has the same test system. The assay can be described thus: Righting reflex in neonatal Δ7 SMA mice. It counts as in vivo. Particulars: IP QD from PND 3, measured PND 10, 14 and 18, FIG. 14. Here is the method: The functional change in righting reflex of neonatal SMA mice is used to determine whether treatment with a test compound improves righting reflex.
SMA Δ7 homozygous knockout mice are dosed intraperitoneally (IP) with test compound or vehicle (100% DMSO) QD from PND 3 until the dose regimen is switched to an oral dose BID in 0.5% hydroxypropylmethyl cellulose (HPMC) with 0.1% Tween-80 at a dose 3.16-fold higher than the dose used for IP. The righting reflex time is measured as the time taken by a mouse to flip over onto its feet after being laid on its back. Righting reflex is measured five times for each mouse (allowing a maximal time of 30 sec for each try) with 5 minutes between each measurement. The righting reflex time for SMA Δ7 homozygous knockout mice treated with test compound or vehicle and age-matched heterozygous mice is measured on PND 10, 14 and 18 and plotted.

Assay [3] concerns full length and Δ7 SMN2 mRNA. The assay can be described thus: Endogenous SMN2 mRNA RT-qPCR splicing assay in cultured cells. The class given is cell-based, human. Particulars: Type 1 SMA patient fibroblasts (GM03813), increasing concentrations, 24 hr, FIG. 4. Here is the method: The reverse transcription-quantitative PCR-based (RT-qPCR) assay is used to quantify the levels of the full length and Δ7 SMN2 mRNA in primary cells and cell lines containing the SMN2 gene treated with a test compound.
GM03813 SMA patient cells (5,000 cells/well) are seeded in 200 μL, of cell culture medium (DMEM plus 10% FBS) in 96-well flat-bottom plates and the plate is immediately swirled to ensure proper dispersal of cells, forming an even monolayer of cells. Cells are allowed to attach for at least 4-6 hrs. Test compounds are serially diluted 3.16-fold in 100% DMSO to generate a 7-point concentration curve. A solution of test compound (1 μL, 200× in DMSO) is added to each test well and 1 μL, DMSO is added to each control well. The plate is incubated for 24 hrs in a cell culture incubator (37° C., 5% CO2, 100% relative humidity). The cells are then lysed in Cells-To-Ct lysis buffer and the lysate is stored at 80° C.
SMN2-specific spliced products and GAPDH mRNA are identified using the following primers and probes in Table 5. Primer SMN FL Forward B (SEQ ID NO. 7) hybridizes to a nucleotide sequence in exon 7 (nucleotide 32 to nucleotide 54) and exon 8 (nucleotide 1 to nucleotide 4), primer SMN Δ7 Forward B (SEQ ID NO. 8) hybridizes to a nucleotide sequence in exon 6 (nucleotide 87 to nucleotide 111) and exon 8 (nucleotide 1 to nucleotide 3), primer SMN Reverse B (SEQ ID NO. 9) hybridizes to a nucleotide sequence in exon 8 (nucleotide 39 to nucleotide 62), probe SMN Probe B (SEQ ID NO. 10) hybridizes to a nucleotide sequence in exon 8 (nucleotide 7 to nucleotide 36). These primers and probe hybridize to nucleotide sequences common to human SMN1 and SMN2 mRNA. Since the SMA patient cells used in Example 3 contain only the SMN2 gene, RT-qPCR can quantify only SMN2 full-length and Δ7 mRNA.
The SMN forward and reverse primers are used at final concentrations of 0.4 μM. The SMN probe is used at a final concentration of 0.15 μM. GAPDH primers are used at final concentrations of 0.1 μM and the probe at 0.075 μM. The One-Step RT-PCR kit was used as the Real-Time PCR Mix. […]
The increase of SMN2 FL and decrease in SMN2 Δ7 mRNA relative to those in cells treated with vehicle control are determined from real-time PCR data using a modified ΔΔCt method (as described in Livak and Schmittgen, Methods, 2001, 25:402-8). The amplification efficiency (E) is calculated from the slope of the amplification curve for SMN2 FL, SMN2 Δ7, and GAPDH individually. The abundances of SMN2 FL, SMN2 Δ7, and GAPDH are then calculated as (1+E)^−Ct, where Ct is the threshold value for each amplicon. […]

As for `Cc1cn2cc(-c3cc4ccc(N5CCN(C)CC5)cc4c(=O)o3)nc2c(C)n1` [Cpd 65, 3-(6,8-dimethylimidazo[1,2-a]pyrazin-2-yl)-7-(4-methylpiperazin-1-yl)-1H-isochromen-1-one], the survival entry in assay [1] is reported as “improved compared to vehicle treated mice”. In addition, in assay [2], the righting reflex result is “improved compared to vehicle treated mice”. In addition, in assay [3], the “SMN2 FL mRNA relative to vehicle” value was “progressively more SMN2 FL mRNA” and the “SMN2 Δ7 mRNA relative to vehicle” value is listed as “less SMN2 Δ7 mRNA”.

Turning to `Cc1cn2cc(-c3cc4ccc(N5CCN6CCC[C@H]6C5)cc4c(=O)o3)nc2c(C)n1` [Cpd 69, 3-(6,8-dimethylimidazo[1,2-a]pyrazin-2-yl)-7-[(8aS)-hexahydropyrrolo[1,2-a]pyrazin-2(1H)-yl]-1H-isochromen-1-one], in assay [1], the survival entry was “improved compared to vehicle treated mice”. In addition, the righting reflex entry in assay [2] is listed as “improved compared to vehicle treated mice”. Besides, in assay [3], the “SMN2 FL mRNA relative to vehicle” value was “progressively more SMN2 FL mRNA” and the “SMN2 Δ7 mRNA relative to vehicle” value is recorded as “less SMN2 Δ7 mRNA”.
